The source of these data is patent publication US11390626B2, “Pyrazolopyrimidine modulators of RAS GTPase” (Tosk, Inc., priority 2019, dated 2022).

Entries after “also recorded” stand apart in the source; their conditions may differ.

For the assay, the system named is phosphorylated ERK. As to the kind of experiment: Phosphorylated ERK western blot in SW1990 cells. Format: cell-based, human. To be noted: 24 hours with compound, EGF 10 ng/mL 15 minutes, FIG. 2. As to the method: Structure 1 decreased both phosphorylated AKT and phosphorylated ERK. Structure 1 had no effect on AKT or ERK (data not shown).
A method used to measure ERK and AKT is based on Welsch et al, Cell 168: 878-889 February 2017. SW1990 cells, growth driven by a G12D kRAS mutation and derived from human, pancreatic cancer cells, are plated in a 6-well plate at 1.5×10^6 cells per plate and grown overnight at 37° C. Media is replaced with serum-free media and the plate incubated an additional 24 hours. Media is replaced with media with or without compound and incubated for an additional 24 hours. EGF is added at a concentration of 10 ng/mL. After 15 minutes, cells are washed with ice cold PBS and lysed with RIPA buffer.
The lysate is processed by electrophoresis using a Mini-PROTEAN® gel mounted in a Mini-PROTEAN® Tetra Cell (cassette). Both the gel and the holding assembly (cassette) are purchased from BIORAD. The gel in the assembly is placed, electrode up, in the buffer tanks. The Tris/glycine/SDS buffer is added to both the inner buffer chamber (200 mL) and the outer buffer chamber (800 mL). […]
The membrane is placed into TTBS buffer containing SuperBlock T20 (Thermo Scientific) and incubated for 1 hour at room temperature. […] The anti pERK detected both pERK 1 and 2 (T202/Y204). […]

As for `Cc1nc2c(-c3ccccc3)c(C)nn2c(NCc2ccccn2)c1Cc1ccccc1` [Structure 1], the “Effect on phosphorylated ERK” value is “decreased; also recorded: suppressed”.
